Assay results from US8540983B2, “Debriding composition from bromelain and methods of production thereof” (MediWound Ltd., priority 2004, dated 2013).

Test system: Debrase esterolytic activity
Assay: Esterolytic activity of Debrase (CLN substrate) and its inhibition by bromelain HPLC fractions
Type: biochemical, Ananas comosus
Conditions: Debrase + 1 mM Iodoacetamide, pH 4.6
Experimental: Bromelain powder (2.5 g) was suspended in 10 ml of 0.1M potassium phosphate buffer pH 6.1 saturated with phenyl mercury acetate for 10 min. After centrifugation for 10 min (3500 rpm), one ml of the supernatant was applied to gel filtration chromatography on a HiLoad 16/60 Superdex 75 HPLC preparation grade column, equilibrated and eluted with the same buffer. Fractions of 5 ml were collected 30 minutes after sample application. For each of the eluted fractions, three parameters were measured: (i) absorbance at 280 nm (A280); (ii) esterolytic activity; and (iii) inhibition of Debrase esterolytic activity.
The esterolytic activity of the bromelain fractions was assayed spectrophotometrically at pH 4.6 using the chromogenic substrate p-nitrophenyl Na-benzyloxycarbonyl-L-lysinate (CLN) as follows:
One milliliter of sodium acetated buffer (10 mM) containing 0.1 M KCl and 1 mM L-cysteine, pH 4.6 was placed in a plastic cuvette at 25° C. One hundred μl of the eluted fraction (at a concentration of 2.5 mg/ml) were added. The solution was incubated for 2 min and then 50 μl of CLN solution (2.5 mM in acetonitrile 10% water) were added. The cuvette was mixed and the increase in absorbance at 317 nm was monitored for 5 minutes. The spontaneous hydrolysis of the substrate was monitored in the presence of buffer only instead of the eluted fractions.

NC(=O)CI [Iodoacetamide]
% Inhibition: 37.0%
Proteolytic activity (esterolytic activity of Debrase): 593
